“And” between values parts separate entries of the source, which are not always exact repeats. Identical values can stand only once. Like-named read-outs stand apart in the source and are kept apart here.
Tests used:
caspase-3/7 [1] = assay: Caspase-3/7 activation assay (ApoONE kit) in Caco-2 cells; format: cell-based, human; conditions: Caco-2 cells treated with IC50 doses; relative to untreated cells; mean ± SEM
Procedure: (§1) ApoONE® Caspase-3/7 kit was used following the manufacturer’s instructions (Supplementary data).
(§2) 5.2. Caspase-3/7 activation assay
(§3) The caspase 3/7 activation was assessed, as a key indicator in caspase-dependent apoptosis, using ApoONE® Caspase-3/7 kit following the manufacturer’s instructions. This kit used a nonfluorescence substrate […]
(§4) the generation of the fluorescence signals of Rhodamine 110. Thesesignal were measured at 490 nm excitation and 520 nm emission using the fluorescence microplate reader (BMG LabTech, Germany). […]

Caco-2 cells [2] = assay: Flow cytometric analysis of apoptosis (annexin V/PI); format: cell-based, human; conditions: IC50 doses, 72 h, annexin-stained, mean ± SEM
Procedure: Reverse: 5′-[…]-3′
5.4. Flow cytometric analysis of apoptosis […]
human colon cancer cell line (Caco-2) for 72 h, at their minimum IC50 doses. After trypsinization, the untreated and treated cancer cells were stained with fluorescein isothiocyanate (FITC)-annexin V/ propidium iodide (PI) for 15 min. After washing with PBS, the annexin-stained apoptotic population was quantified using flow cytometry at FITC signal detector (FL1) against the phycoerythrin emission signal detector (FL2).

HepG-2 cells [3] = assay: MTT cytotoxicity assay, liver cancer cells; format: cell-based, human; conditions: for IC50: Homo sapiens, HepG2; for Morphological alterations of treated HepG-2 cells: microscopic examination after 72 h, compared to untreated and 5-FU-treated cells; for HepG-2 SI: ratio of IC50 against normal cells (Wi-38) to IC50 against HepG-2
Procedure: (§5) Wi-38, Caco-2 and HepG-2 cells were cultured in DMEM medium-contained 10% FBS, seeded as 5 × 10^3 cells per well in 96-well cell culture plate and incubated at 37 °C in 5% CO2 incubator. After 24 h, serial concentrations of the test compounds were incubated with cells for 72 h. Cell viability was assayed via MTT protocol[27] (Supplementary data). IC50 values of the synthesized compounds were measured via the Graphpad Instat software. Morphological changes were examined using phase contrast inverted microscope with a digital camera (Olympus, Japan). […]
(§6) Normal human lung fibroblast Wi-38 cell line was used to detect cytotoxicity of the studied compounds.
(§7) Wi-38 cell line was cultured in DMEM medium-contained 10% fetal bovine serum (FBS), seeded as 5x10^3 cells per well in 96-well cell culture plate and incubated at 37 °C in 5% CO2 incubator. After 24 h for cell attachment, serial concentrations of the synthetic compounds and standard chemotherapy (5-fluorouracil) were incubated with Wi-38 cells for 72 h. Cell viability was assayed by MTT method Twenty microliters of 5 mg/ml MTT (Sigma, USA) was added to each well and the plate was incubated at 37 °C for 3 h. Then MTT solution was removed, 100 µl DMSO was added, and the absorbance of each well was measured with a microplate reader (BMG LabTech, Germany) at 570 nm. The dose (EC50 and EC100) values (at 50% and100% cell viability, respectively) of the tested compounds was estimated by the Graphpad Instat software.
(§8) The anticancer effect of the above-mentioned compounds was assayed using human colon cancer cell line (Caco-2) and liver cancer cell line (HepG-2) that were cultured in DMEM (Lonza, USA) supplemented with 10%
(§9) FBS. All cancer cells (5x10^3 cells/well) were seeded in sterile 96-well plates. After 24h, serial concentrations of the tested compounds and 5-fluorouracil (Fu) were incubated with two cancer cell lines for 72 h at 37 °C in 5% CO2 incubator. MTT method was done as described above. The half maximal inhibitory concentration (IC50) values were calculated using the Graphpad Instat software. Furthermore, cellular morphological changes before […]
(§10) contrast inverted microscope with a digital camera (Olympus, Japan).

Wi-38 cells [4] = assay: MTT cytotoxicity assay, normal human fibroblasts; format: cell-based; conditions: 72 h, mean ± SEM; for MNTC: dose at 100% cell viability, read-out: Wi-38 EC100
Procedure: as §5, §6
as §7, with “software. […]” for “software.”

caspase-3/7 [5] = assay: Caspase-3/7 activation assay (ApoONE kit) in HepG-2 cells; format: cell-based, human; conditions: HepG-2 cells treated with IC50 doses; relative to untreated cells; mean ± SEM
Procedure: as §1, §2, §3, §4

Caco-2 cells [6] = assay: MTT cytotoxicity assay, colorectal cancer cells; format: cell-based, human; conditions: for SI against the screened cell lines: Caco-2 and HepG-2 cells versus Wi-38; for IC50: Homo sapiens; for Caco-2 LE: LE = 1.37 (pIC50)/NHA; for Caco-2 LLE: LLE = pIC50–cLog P; for Morphological alterations of treated Caco-2 cells: microscopic examination after 72 h, compared to untreated and 5-FU-treated cells; for Caco-2 SI: ratio of IC50 against normal cells (Wi-38) to IC50 against Caco-2
Procedure: as §5, §6, §7, §8, §9, §10

Bcl2 = assay: RT-qPCR of Bcl2 expression in Caco-2 cells; format: cell-based, human; conditions: 0.06 µM for 72 h, mean ± SEM
Procedure: (§11) RNAs of untreated and treated cancer cells were extracted using Gene JET RNA purification kit (Thermo Scientific, USA). Then cDNAs were synthesized using cDNA Synthesis Kit (Thermo Scientific, USA). Real time PCR was performed using SYBR green master mix and specific primers (Forward/Reverse) as detailed in the supplementary data. […]
5.3. Real-time Quantitative PCR Analysis of Bcl2 […]
as §11, with “µM, for 72 h in 5% CO2 incubator. RNAs” for “RNAs”, “primers” for “primers (Forward/Reverse) as detailed in the supplementary data.”
The thermal cycling parameters were pre-denaturation, followed by 40 amplification cycles of 1 min at 95°C and 30 s at 60 °C and at 72°C for 30 sec. GAPDH mRNA was quantified to adjust the amount of mRNA in each sample. The 2−ΔΔCT equation was used to estimate change in gene expressions before and after treatment of cancer cells.
Table 1 primer sequences of the used genes

HepG-2 cells [7] = system: HepG-2 cells; set-up: method as in PMID 30826510; conditions: previously studied nitro lead, cited from earlier work
Wi-38 cells [8] = system: Wi-38 cells; set-up: method as in PMID 30826510; conditions: MTT; previously studied nitro lead; cited from earlier work
[9] = MTT, 72 h, mean ± SEM, read-out: HepG-2 IC50
[10] = read-out: HepG-2 pIC50 (converted)
[11] = Caco-2, -log (IC50), molar, read-out: Caco-2 IC50 (converted)
[12] = Caco-2, MTT, 72 h, mean ± SEM, read-out: Caco-2 IC50 (converted)
[13] = Caco-2 and HepG-2 cells, MTT, read-out: IC50 against the screened cell lines

## CCOC(=O)c1ccc(NC(=O)C2(OC(=O)Cc3c[nH]c4ccccc34)CCCCC2)cc1 [7a, Ethyl-4-(1-(2-(1H-indol-3-yl)acetoxy)cyclohexanecarboxamido)benzoate]
caspase-3/7 [1]
  Relative fold increment in caspase 3/7 activity, Caco-2: 3.086 ± 0.038 fold
Caco-2 cells [2]
  % Apoptosis (total apoptotic cell population): 50.9% and 50.905 ± 5.975%
HepG-2 cells [3]; [9]
  IC50: 0.115 ± 0.016 µM
HepG-2 cells [3]; [10]
  IC50: 0.115 µM
HepG-2 cells [3]
  Morphological alterations of treated HepG-2 cells: severe shrinkage and morphological alterations
  HepG-2 SI: 97.347
Wi-38 cells [4]
  MNTC: 2980 ± 640 nM
  IC50: 11.2 ± 3.75 µM
caspase-3/7 [5]
  Relative fold increment in caspase 3/7 activity, HepG-2: 2.938 ± 0.063 fold
Caco-2 cells [6]
  SI against the screened cell lines: 97–243
  Caco-2 LE: 0.292
  Caco-2 LLE: 4.025
  Morphological alterations of treated Caco-2 cells: severe shrinkage and morphological alterations
  Caco-2 SI: 127.215
Caco-2 cells [6]; [11]
  IC50: 0.0881 µM
Caco-2 cells [6]; [12]
  IC50: 0.088 ± 0.01 µM
Caco-2 cells [6]; [13]
  IC50: 0.07 to 0.12 µM
Bcl2
  Bcl2 gene relative fold change: 0.471 ± 0.051 fold

## CCOC(=O)c1ccc(NC(=O)C2(OC(=O)[C@H](Cc3ccccc3)NC(=O)Oc3ccccc3)CCCCC2)cc1 [7j, Ethyl-4-(1-((2-((phenoxycarbonyl)amino)-3-phenylpropanoyl)oxy)cyclohexanecarboxamido) benzoate]
caspase-3/7 [1]
  Relative fold increment in caspase 3/7 activity, Caco-2: 3.586 ± 0.098 fold
Caco-2 cells [2]
  % Apoptosis (total apoptotic cell population): 52.6% and 52.650 ± 5.310%
HepG-2 cells [3]; [9]
  IC50: 0.087 ± 0.007 µM
HepG-2 cells [3]; [10]
  IC50: 0.0871 µM
HepG-2 cells [3]
  Morphological alterations of treated HepG-2 cells: severe shrinkage and morphological alterations
  HepG-2 SI: 192.689
Wi-38 cells [4]
  MNTC: 1770 ± 694 nM
  IC50: 16.8 ± 0.637 µM
caspase-3/7 [5]
  Relative fold increment in caspase 3/7 activity, HepG-2: 2.960 ± 0.065 fold
Caco-2 cells [6]
  SI against the screened cell lines: 97–243
  Caco-2 LE: 0.239
  Caco-2 LLE: 3.461
  Morphological alterations of treated Caco-2 cells: severe shrinkage and morphological alterations
  Caco-2 SI: 242.956
Caco-2 cells [6]; [11]
  IC50: 0.069 µM
Caco-2 cells [6]; [12]
  IC50: 0.069 ± 0.006 µM
Caco-2 cells [6]; [13]
  IC50: 0.07 to 0.12 µM
Bcl2
  Bcl2 gene relative fold change: 0.127 ± 0.009 fold

## O=C(Cc1ccccc1)OC1(C(=O)Nc2ccc([N+](=O)[O-])cc2)CCCCC1 [V]
HepG-2 cells [7]; MTT
  IC50: 0.014 µM
HepG-2 cells [7]; Wi-38 vs HepG-2
  SI (HepG-2): 3.091
Wi-38 cells [8]
  IC50: 0.044 µM

From PMC9794698, “Structure optimization of new tumor-selective Passerini α-acyloxy carboxamides as Caspase-3/7 activators” (Scientific Reports, 2022)
